Measured values as given in ChEMBL document CHEMBL4507319 (2021).

Assays:
[1] = biological target: T1, Activin receptor type-1 (Homo sapiens) (UniProt Q04771); assay: ALK2(h) Eurofins kinase panel; conditions: Compound concentration 1.0 uM
T1 sequence (whole entry): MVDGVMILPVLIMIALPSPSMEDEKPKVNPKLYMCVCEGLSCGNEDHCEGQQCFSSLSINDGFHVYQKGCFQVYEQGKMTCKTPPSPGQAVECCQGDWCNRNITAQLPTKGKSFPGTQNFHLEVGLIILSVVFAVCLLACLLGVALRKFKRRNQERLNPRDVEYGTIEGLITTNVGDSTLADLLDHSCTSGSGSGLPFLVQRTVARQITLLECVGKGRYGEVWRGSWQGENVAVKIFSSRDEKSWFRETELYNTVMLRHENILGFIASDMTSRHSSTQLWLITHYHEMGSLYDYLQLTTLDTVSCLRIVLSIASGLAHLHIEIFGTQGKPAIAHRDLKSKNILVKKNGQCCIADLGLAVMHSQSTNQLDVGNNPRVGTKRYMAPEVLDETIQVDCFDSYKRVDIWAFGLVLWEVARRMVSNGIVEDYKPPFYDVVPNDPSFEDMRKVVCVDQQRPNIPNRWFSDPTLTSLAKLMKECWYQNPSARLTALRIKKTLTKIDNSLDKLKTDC

[2] = biological target: T2, Serine/threonine-protein kinase TBK1 (Homo sapiens) (UniProt Q9UHD2); assay: TBK1(h) Eurofins kinase panel; conditions: Compound concentration 1.0 uM
T2 sequence (whole entry): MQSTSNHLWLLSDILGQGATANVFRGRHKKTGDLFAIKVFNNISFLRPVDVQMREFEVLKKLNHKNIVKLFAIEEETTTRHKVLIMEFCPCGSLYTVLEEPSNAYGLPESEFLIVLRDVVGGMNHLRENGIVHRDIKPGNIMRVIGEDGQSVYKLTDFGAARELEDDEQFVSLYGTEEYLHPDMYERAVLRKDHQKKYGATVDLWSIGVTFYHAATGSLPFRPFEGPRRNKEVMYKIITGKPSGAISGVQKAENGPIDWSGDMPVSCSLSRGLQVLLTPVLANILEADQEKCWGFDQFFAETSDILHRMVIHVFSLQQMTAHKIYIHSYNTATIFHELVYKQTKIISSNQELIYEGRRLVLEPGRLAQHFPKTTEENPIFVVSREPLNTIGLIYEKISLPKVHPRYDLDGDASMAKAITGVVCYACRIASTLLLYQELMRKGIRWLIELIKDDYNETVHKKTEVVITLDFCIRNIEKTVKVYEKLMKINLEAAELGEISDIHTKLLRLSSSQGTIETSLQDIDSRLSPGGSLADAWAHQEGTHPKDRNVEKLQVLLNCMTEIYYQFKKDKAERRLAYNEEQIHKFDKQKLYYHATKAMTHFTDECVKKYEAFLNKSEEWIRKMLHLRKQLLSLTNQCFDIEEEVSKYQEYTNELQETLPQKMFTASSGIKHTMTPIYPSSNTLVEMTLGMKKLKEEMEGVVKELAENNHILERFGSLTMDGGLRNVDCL

[3] = biological target: Maternal embryonic leucine zipper kinase (Homo sapiens) (UniProt Q14680); assay: MELK(h) Eurofins kinase panel; conditions: Compound concentration 1.0 uM
[4] = biological target: Ribosomal protein S6 kinase alpha-4 (Homo sapiens) (UniProt O75676); assay: MSK2(h) Eurofins kinase panel; conditions: Compound concentration 1.0 uM
[5] = biological target: Serine/threonine-protein kinase tousled-like 2 (Homo sapiens) (UniProt Q86UE8); assay: TLK2(h) Eurofins kinase panel; conditions: Compound concentration 1.0 uM
[6] = biological target: Wee1-like protein kinase 2 (Homo sapiens) (UniProt P0C1S8); assay: Wee1B(h) Eurofins kinase panel; conditions: Compound concentration 1.0 uM
[7] = biological target: cAMP-dependent protein kinase catalytic subunit beta (Homo sapiens) (UniProt P22694); assay: PKAcβ(h) Eurofins kinase panel; conditions: Compound concentration 1.0 uM
[8] = biological target: Serine/threonine-protein kinase MRCK alpha (Homo sapiens) (UniProt Q5VT25); assay: MRCKalpha(h) Eurofins kinase panel; conditions: Compound concentration 1.0 uM
[9] = biological target: Cyclin-dependent kinase 2/cyclin E (Homo sapiens) (UniProt P24864+P24941+O96020); assay: CDK2/cyclinE(h) Eurofins kinase panel; format: protein-complex assay; conditions: Compound concentration 1.0 uM
[10] = biological target: T3, Beta-adrenergic receptor kinase 1 (Homo sapiens) (UniProt P25098); assay: GRK2(h) Eurofins kinase panel; conditions: Compound concentration 1.0 uM
T3 sequence (whole entry): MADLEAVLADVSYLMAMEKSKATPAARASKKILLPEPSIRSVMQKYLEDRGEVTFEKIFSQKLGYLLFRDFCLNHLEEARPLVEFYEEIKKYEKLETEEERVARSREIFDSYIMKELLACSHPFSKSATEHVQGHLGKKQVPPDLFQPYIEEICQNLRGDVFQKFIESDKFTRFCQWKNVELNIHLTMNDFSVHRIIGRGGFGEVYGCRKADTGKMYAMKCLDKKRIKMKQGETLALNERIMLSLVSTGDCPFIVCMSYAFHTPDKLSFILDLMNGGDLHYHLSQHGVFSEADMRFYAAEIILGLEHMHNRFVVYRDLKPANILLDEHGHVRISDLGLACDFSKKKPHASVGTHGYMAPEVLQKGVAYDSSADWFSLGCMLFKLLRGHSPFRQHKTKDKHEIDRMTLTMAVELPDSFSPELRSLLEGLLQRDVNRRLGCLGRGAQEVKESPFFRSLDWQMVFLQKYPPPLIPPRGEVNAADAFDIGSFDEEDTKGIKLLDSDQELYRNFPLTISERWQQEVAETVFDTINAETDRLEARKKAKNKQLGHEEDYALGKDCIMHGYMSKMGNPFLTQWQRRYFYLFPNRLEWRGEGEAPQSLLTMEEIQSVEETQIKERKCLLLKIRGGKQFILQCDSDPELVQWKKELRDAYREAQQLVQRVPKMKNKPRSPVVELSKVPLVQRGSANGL

[11] = test system: MDA-MB-453; assay: MDA-MB- 453 cell line Proliferation assay; format: functional, Homo sapiens; conditions: time 3 day
[12] = biological target: Tyrosine-protein kinase JAK2 (Homo sapiens) (UniProt O60674); assay: JAK2(h) Eurofins kinase panel; conditions: Compound concentration 1.0 uM
[13] = biological target: MAP kinase-interacting serine/threonine-protein kinase 2 (Homo sapiens) (UniProt Q9HBH9); assay: Mnk2(h) Eurofins kinase panel; conditions: Compound concentration 1.0 uM
[14] = biological target: Hepatocyte growth factor receptor (Homo sapiens) (UniProt P08581); conditions: Compound concentration 1.0 uM
[15] = biological target: Non-receptor tyrosine-protein kinase TYK2 (Homo sapiens) (UniProt P29597); assay: TYK2(h) Eurofins kinase panel; conditions: Compound concentration 1.0 uM
[16] = biological target: T4, Dual specificity mitogen-activated protein kinase kinase 6 (Homo sapiens) (UniProt P52564); assay: MKK6(h) Eurofins kinase panel; conditions: Compound concentration 1.0 uM
T4 sequence (whole entry): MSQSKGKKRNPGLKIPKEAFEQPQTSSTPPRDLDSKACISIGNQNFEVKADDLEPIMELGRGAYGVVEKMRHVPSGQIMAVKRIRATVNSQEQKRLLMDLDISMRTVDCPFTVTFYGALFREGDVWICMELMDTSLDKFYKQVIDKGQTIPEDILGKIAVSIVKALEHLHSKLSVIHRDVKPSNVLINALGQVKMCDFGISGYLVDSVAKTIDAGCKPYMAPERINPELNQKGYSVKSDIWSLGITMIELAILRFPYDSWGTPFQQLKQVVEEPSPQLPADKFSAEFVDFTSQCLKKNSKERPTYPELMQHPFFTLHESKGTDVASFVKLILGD

Wee1-like protein kinase 2 (Homo sapiens), sequence (P0C1S8 whole entry, looked up): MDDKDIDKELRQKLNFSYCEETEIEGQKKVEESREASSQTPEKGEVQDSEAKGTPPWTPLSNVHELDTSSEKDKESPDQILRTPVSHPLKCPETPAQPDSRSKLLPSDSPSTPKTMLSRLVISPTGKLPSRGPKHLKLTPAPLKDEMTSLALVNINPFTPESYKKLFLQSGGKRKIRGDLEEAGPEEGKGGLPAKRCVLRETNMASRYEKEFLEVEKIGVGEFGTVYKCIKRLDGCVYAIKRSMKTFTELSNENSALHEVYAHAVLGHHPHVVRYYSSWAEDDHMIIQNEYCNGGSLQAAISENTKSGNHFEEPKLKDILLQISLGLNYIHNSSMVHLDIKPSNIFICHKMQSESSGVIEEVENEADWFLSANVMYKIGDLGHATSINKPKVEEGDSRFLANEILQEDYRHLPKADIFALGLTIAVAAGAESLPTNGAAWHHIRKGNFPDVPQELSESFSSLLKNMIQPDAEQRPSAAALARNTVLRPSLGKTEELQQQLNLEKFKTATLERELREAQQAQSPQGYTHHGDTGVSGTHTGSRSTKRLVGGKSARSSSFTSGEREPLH
MAP kinase-interacting serine/threonine-protein kinase 2 (Homo sapiens), sequence (Q9HBH9 whole entry, looked up): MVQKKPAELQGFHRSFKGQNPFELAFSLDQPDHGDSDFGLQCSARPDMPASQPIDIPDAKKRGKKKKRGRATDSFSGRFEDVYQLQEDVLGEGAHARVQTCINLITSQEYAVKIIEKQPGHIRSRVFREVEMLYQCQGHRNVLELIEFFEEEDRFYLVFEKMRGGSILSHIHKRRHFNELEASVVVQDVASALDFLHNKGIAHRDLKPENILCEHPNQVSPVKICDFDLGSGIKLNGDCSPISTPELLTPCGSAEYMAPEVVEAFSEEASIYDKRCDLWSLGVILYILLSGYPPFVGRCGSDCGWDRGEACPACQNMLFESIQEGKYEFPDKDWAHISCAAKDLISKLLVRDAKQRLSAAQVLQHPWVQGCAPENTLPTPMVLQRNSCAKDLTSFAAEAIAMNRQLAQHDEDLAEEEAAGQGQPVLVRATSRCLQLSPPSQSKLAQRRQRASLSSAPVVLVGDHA
Serine/threonine-protein kinase MRCK alpha (Homo sapiens), sequence (Q5VT25 whole entry): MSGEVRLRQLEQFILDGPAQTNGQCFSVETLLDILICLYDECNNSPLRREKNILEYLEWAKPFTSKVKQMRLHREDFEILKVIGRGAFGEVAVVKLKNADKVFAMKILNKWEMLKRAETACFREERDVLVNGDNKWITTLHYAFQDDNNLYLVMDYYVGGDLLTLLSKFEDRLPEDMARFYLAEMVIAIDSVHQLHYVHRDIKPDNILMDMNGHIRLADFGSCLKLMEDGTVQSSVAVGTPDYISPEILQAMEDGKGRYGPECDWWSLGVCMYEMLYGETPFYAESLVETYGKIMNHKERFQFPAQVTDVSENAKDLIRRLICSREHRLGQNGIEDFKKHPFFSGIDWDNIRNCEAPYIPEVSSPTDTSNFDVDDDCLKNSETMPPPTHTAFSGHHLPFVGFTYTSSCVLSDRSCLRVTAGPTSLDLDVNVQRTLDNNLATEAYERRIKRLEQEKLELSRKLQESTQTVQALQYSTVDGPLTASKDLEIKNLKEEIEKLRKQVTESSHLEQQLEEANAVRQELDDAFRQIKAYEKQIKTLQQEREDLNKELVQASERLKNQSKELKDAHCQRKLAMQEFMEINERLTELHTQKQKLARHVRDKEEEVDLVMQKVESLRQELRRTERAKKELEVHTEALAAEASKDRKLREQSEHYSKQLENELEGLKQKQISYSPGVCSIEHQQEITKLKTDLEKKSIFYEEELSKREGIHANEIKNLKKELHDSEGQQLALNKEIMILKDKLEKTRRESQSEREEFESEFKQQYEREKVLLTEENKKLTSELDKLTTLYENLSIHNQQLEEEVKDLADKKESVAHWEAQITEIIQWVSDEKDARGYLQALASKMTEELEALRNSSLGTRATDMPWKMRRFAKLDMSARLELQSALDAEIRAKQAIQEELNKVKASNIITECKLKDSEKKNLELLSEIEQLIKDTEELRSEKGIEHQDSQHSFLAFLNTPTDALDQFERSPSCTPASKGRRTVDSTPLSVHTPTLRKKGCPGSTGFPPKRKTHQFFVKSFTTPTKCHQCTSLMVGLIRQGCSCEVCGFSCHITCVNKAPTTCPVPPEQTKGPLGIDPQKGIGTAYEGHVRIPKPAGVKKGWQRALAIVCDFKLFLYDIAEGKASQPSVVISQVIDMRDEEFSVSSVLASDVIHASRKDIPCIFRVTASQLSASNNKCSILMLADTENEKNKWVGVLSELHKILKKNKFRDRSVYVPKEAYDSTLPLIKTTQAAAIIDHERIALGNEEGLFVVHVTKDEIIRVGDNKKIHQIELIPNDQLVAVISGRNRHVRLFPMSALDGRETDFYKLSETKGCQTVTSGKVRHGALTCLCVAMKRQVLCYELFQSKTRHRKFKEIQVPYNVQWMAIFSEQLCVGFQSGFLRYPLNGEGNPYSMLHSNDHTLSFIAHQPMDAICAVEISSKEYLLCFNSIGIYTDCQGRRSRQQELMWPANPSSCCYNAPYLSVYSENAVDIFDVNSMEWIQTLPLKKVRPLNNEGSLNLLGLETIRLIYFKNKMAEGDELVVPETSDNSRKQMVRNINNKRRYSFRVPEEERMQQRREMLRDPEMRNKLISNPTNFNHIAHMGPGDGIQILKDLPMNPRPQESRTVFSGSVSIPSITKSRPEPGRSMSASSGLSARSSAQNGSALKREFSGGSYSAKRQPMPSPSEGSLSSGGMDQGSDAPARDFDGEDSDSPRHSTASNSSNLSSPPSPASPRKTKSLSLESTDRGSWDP
Serine/threonine-protein kinase tousled-like 2 (Homo sapiens), sequence (Q86UE8 whole entry, looked up): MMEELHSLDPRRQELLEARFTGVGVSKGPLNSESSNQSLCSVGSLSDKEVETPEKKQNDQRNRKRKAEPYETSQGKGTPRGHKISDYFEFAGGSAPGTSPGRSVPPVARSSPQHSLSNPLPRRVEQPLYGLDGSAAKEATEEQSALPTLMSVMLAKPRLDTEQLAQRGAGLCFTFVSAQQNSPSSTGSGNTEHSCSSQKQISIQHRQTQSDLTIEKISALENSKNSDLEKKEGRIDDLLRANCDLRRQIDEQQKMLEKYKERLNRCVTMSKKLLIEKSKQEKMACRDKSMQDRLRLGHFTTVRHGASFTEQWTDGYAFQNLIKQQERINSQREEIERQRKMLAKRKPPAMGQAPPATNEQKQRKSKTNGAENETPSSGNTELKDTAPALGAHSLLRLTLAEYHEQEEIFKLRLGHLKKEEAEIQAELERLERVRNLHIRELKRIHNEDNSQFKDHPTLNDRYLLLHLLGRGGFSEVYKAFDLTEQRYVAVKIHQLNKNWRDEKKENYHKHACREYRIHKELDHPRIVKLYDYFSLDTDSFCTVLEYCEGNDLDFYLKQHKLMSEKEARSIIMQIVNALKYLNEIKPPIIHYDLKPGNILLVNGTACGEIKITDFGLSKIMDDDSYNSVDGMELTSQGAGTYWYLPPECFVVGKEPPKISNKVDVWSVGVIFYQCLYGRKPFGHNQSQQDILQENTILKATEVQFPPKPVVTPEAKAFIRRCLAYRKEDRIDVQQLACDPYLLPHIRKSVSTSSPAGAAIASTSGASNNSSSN
Maternal embryonic leucine zipper kinase (Homo sapiens), sequence (Q14680 whole entry, looked up): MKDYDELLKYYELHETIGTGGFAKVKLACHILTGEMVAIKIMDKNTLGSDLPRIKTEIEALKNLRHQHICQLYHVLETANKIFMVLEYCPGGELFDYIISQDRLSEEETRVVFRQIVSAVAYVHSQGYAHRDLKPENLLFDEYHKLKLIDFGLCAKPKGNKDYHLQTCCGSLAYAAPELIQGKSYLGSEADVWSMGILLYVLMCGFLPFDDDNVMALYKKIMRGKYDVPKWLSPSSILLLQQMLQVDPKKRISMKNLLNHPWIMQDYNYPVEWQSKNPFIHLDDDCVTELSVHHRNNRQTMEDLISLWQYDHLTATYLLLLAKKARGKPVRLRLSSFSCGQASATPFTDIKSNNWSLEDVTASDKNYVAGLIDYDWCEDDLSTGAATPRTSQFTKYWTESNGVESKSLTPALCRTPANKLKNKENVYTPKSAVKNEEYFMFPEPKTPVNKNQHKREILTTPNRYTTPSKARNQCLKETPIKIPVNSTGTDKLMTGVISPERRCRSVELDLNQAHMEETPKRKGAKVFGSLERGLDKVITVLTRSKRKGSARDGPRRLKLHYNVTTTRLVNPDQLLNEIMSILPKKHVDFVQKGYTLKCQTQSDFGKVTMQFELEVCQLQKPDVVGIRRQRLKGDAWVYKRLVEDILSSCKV
Ribosomal protein S6 kinase alpha-4 (Homo sapiens), sequence (O75676 whole entry, looked up): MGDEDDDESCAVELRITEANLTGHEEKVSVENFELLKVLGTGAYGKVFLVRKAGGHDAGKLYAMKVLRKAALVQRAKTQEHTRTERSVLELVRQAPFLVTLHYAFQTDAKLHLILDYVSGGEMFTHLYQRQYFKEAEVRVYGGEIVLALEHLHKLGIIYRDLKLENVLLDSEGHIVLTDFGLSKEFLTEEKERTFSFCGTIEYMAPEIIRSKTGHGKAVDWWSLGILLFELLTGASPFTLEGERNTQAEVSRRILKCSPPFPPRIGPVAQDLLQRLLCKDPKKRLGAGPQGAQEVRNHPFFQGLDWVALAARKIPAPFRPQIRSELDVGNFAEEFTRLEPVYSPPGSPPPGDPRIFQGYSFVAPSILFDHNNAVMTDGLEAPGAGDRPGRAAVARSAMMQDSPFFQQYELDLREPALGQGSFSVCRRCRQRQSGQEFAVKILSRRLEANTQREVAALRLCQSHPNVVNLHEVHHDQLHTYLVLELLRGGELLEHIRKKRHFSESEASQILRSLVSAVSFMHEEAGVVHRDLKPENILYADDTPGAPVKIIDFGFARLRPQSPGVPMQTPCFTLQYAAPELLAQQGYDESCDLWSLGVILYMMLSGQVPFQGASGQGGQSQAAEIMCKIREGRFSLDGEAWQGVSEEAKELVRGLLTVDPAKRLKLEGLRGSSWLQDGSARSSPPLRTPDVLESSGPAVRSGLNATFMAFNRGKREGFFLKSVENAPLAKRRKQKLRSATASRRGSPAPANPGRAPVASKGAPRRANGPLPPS

CCc1ccccc1C(=O)Nc1n[nH]c2c(C)c(F)c(C3C(C#N)=C(C)N(C)C(C)=C3C#N)cc12 [BAY-3827]
14.6 µM: Cell Proliferation IC50 [11]
inactive: % residual kinase activity [1] 109% | % residual kinase activity [2] 106% | % residual kinase activity [3] 39% | % residual kinase activity [4] 27% | % residual kinase activity [5] 96% | % residual kinase activity [6] 101% | % residual kinase activity [7] 90% | % residual kinase activity [8] 98% | % residual kinase activity [9] 92% | % residual kinase activity [10] 102% | % residual kinase activity [12] 88% | % residual kinase activity [13] 110% | % residual kinase activity [14] 1% | % residual kinase activity [15] 87% | % residual kinase activity [16] 94%
